Values joined by “and” are separate entries in the source; they are usually repeats but may differ in a detail not shown here. Equal entries are not always repeated.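 All cell lines were grown in 96-well plates and treated with compound for 48 hours. GI50 = concentration required for 50% inhibition of growth. At the TGI there is no net growth.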 Where only a bound is given, the exact number is not on record here.

What all share (experiment): NCI tumour cell line growth inhibition, 48 h
Assay [1] relates to LXFL 529 NSCLC.
Assay [2] relates to OVCAR-3 ovarian.
In assay [3] the test system is SW-620 colon.
Assay [4] deals with SF-268 CNS.
Assay [5] has as its system DMS 114 small cell lung.
Assay [6] relates to SNB-78 CNS.
Assay [7] has as its system DMS 273 small cell lung.
Assay [8] has as its system DLD-1 colon.
The test system of assay [9] is HOP-18 NSCLC.
In assay [10] the test system is RXF-631 renal.
For assay [11], the system named is NCI-H226 lung.
Assay [12] relates to KM20L2 colon.
The test system of assay [13] is M19-MEL melanoma.
The subject of assay [14] is P388 leukemia.
Assay [15] concerns P388/ADR leukemia.
The subject of assay [16] is XF 498 CNS.

In the case of `O=P(Nc1ccc(Cl)cc1)(Oc1ccccc1)N(CCCl)CCCl` (stereo not given), the TGI in [1], in [2], in assay [3], in assay [4], in assay [5] and in [6] was greater than 100 µM in each case. For the same compound, the TGI in [7], in [8], in assay [9], in [10], in [11] and in [12] was greater than 100 µM throughout. The same compound displayed a TGI in [13] greater than 100 µM.
Consider `CC1NC(=O)CC(c2ccccc2)N(N=O)C1c1ccccc1` (stereo not given), for which the TGI is greater than 100 µM in [2]; greater than 31.6 µM in assay [3]; greater than 57.8 µM in assay [14]; greater than 100 µM in assay [4]; greater than 91.8 µM in [6]; greater than 75.1 µM in [7]. For the same compound, the TGI in assay [8] was greater than 100 µM; in assay [9], greater than 100 µM; in assay [15] it was greater than 60.2 µM; in [11] it was greater than 100 µM; in assay [12] it was 40 µM; in [16], 75.3 µM. Also, the TGI in assay [13] is greater than 100 µM.
In the case of `NC(N)=N/N=C/c1c[nH]c2ccccc12`, the TGI in [1], in assay [2], in assay [3], in assay [4], in assay [5] and in assay [6] was greater than 100 µM throughout. The TGI in [7], in assay [8], in assay [9], in [11] and in [12] was greater than 100 µM in each case.
Consider `C=CCCN1CCc2c([nH]c3ccccc23)C1C(=O)O` (stereo not given), for which the TGI in assay [1], in assay [2], in assay [3], in assay [4], in [5] and in assay [6] was greater than 100 µM each time. Moreover, the TGI in assay [7], in assay [8], in assay [10], in assay [11], in assay [12] and in assay [16] was greater than 100 µM in each case. Also, the TGI in assay [13] was greater than 100 µM.
As to `O=C1CCC(c2ccc(Cl)cc2)=NN1c1nsc2ccccc12`, the TGI was 81.4 µM in assay [1]; 44.7 µM in assay [2]; greater than 100 µM in assay [3]; greater than 100 µM in assay [4]; 87.9 µM in assay [5]; 78.7 µM in [6]. The TGI is 74.5 µM in [7], greater than 100 µM in assay [9], greater than 100 µM in assay [12] and greater than 100 µM in [13].
In the case of `COC[C@@H](C[C@H]1O[C@@](O)([C@H](O)[C@@H]2C[C@H](OC)[C@@H](O)CC/C=C(C)/C=C/[C@@H](O[C@@H]3O[C@@H](C)[C@H](OC)[C@@H](O)[C@@H]3O)[C@H](C)/C=C(C)/C=C(C)/C=C(\C)C(=O)O2)[C@H](C)[C@@H](O)[C@H]1C)O[C@H]1C[C@](C)(O)[C@@H](O[C@H]2C[C@@H](OC)[C@H](O)[C@@H](C)O2)C(C)O1` (stereo not given in full), the TGI in assay [2], in assay [3], in assay [4] and in [11] was greater than 100 µM each time.
Turning to `COc1cc(C(=O)N(Cc2cccnc2)C(=S)N(Cc2cccnc2)C(=O)c2cc(OC)c(OC)c(OC)c2)cc(OC)c1OC`, the TGI in [2], in assay [3], in assay [4] and in assay [11] was greater than 100 µM throughout.
In the case of `COc1cc(/C=C(\C#N)C(N)=O)cc(Br)c1O`, the TGI in assay [2], in assay [3], in assay [14], in assay [4], in assay [6] and in assay [7] was greater than 100 µM in each case. Moreover, the TGI in assay [8], in assay [9], in assay [15], in assay [11], in assay [12] and in assay [16] was greater than 100 µM in each case. Besides, the TGI in assay [13] is greater than 100 µM. The GI50 in assay [14] was 85.3 µM and 44.5 µM.
For the compound `CC(=O)OCC12C(=O)C[C@@H](C)C3(CC(c4ccoc4)OC3=O)C1CCC(OC(C)=O)C21CO1` (stereo not given in full), the TGI in assay [2], in [3], in assay [4] and in [11] was greater than 100 µM in each case.
As for `COc1ccccc1/C=C1\SC(=S)N(/C=C2\C(=O)Oc3ccccc3C2=O)C1=O`, the TGI was 44.6 µM in assay [2], greater than 100 µM in [3], greater than 100 µM in assay [4] and greater than 100 µM in assay [11].
As to `COc1cc(Cn2c3c(c4cc(O)ccc42)Cc2ccccc2C3=O)cc(OC)c1`, the TGI in [2], in assay [3], in [4] and in assay [11] was greater than 100 µM in each case.
As to `CCOCc1nc2c(OC)cc(-c3nc4ccc(N5CCN(C)CC5)cc4[nH]3)c(OC)c2[nH]1`, the TGI in assay [2] was 70.6 µM; in [3], greater than 100 µM; in assay [4], greater than 100 µM; in assay [11] it was 81 µM.
As to `O=C1CC(=Nc2ccc(Cl)cc2)C(c2ccccc2)N1c1ccccc1` (stereo not given), the TGI in assay [2] was 14.5 µM; in [3], greater than 100 µM; in assay [4] it was greater than 100 µM; in [11] it was 85.7 µM.
With `O=Cc1c(C(=O)O)[nH]c(=O)[nH]c1=O`, the TGI in assay [2], in assay [3], in [4] and in [11] was greater than 100 µM in each case.
For `C[N+](C)(C)CC1CCCCCCCCCCC1=O` (stereo not given), the TGI in [2], in assay [3], in assay [4] and in assay [11] was greater than 100 µM in each case.

Source of the values: PubChem BioAssay (NCI).
